“Also recorded” adds a separate entry of the source. Where two headings read alike, the source gives them in different places.

The values that follow come from patent US6830893B2 (priority 1999, dated 2004).

One test has as its system HIV-1. The note with it: T lymphocyte tropic and monocyte tropic HIV-1; Lawless et al. 1996; cited from earlier work.
The subject of another test is human monocytes. Put plainly: Calcium mobilization (Fura-2) in human monocytes. Format: cell-based.
For test [1], the target named is T1, FPRL1 (Homo sapiens, UniProt P25090).
T1 construct: expressed in transfected cells; host or cells: human embryonic kidney (HEK) 293 cells, designated FPRL1/293
T1 sequence (P25090 1-351): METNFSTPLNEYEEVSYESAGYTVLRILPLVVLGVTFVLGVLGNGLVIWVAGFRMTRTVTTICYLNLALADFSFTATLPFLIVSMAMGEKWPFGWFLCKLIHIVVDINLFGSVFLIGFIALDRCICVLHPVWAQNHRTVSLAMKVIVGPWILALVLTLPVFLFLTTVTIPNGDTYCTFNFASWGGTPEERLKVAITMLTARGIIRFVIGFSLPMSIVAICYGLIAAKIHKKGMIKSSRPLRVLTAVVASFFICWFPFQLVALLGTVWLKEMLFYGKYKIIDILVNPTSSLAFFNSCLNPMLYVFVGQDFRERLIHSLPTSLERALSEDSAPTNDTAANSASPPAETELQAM
Format: cell-based. The method, then:
(Prossnitz and Ye, Pharmacol. Ther. 74: 73 (1997); Murphy, The N-formyl peptide chemotactic receptors, Chemoattractant ligands and their receptors. CRC Press, Boca Raton, p. 269 (1996); and Gao and M. Murphy, J. Biol. Chem. 268: 25395 (1993)).
(§1) Calcium mobilization was assayed by incubating 107/ml of monocytes, neutrophils, FPRL1 or ETFR transfectants in loading buffer containing 138 mM NaCl, 6 mM KCl, 1 mM CaCl2, 10 mM HEPES (pH 7.4), 5 mM glucose, 0.1% BSA with 5 μM Fura-2 (Sigma) at 37° C. for 30 min. The dye-loaded cells were washed and resuspended in fresh loading buffer. The cells were then transferred into quartz cuvettes ([…] in 2 ml) which were placed in a luminescence spectrometer LS50 B (Perkin-Elmer Limited, Beaconsfield, England). Stimulants at different concentrations were added in a volume of 20 μl to the cuvettes at indicated time points. The ratio of fluorescence at 340 and 380 nm wavelength was calculated using the FL WinLab program (Perkin Elmer).

A further test concerns neutrophils. Put plainly: Calcium mobilization (Fura-2) in human neutrophils. Type of test: cell-based. Background: A change in cytosolic calcium serves as a functional read-out for many receptors and channels.
Test [2] has as its target T1, FPRL1. Put plainly: Chemotaxis of FPRL1/293 cells. Format: cell-based. The note with it: for migration / chemotaxis of FPRL1/293 cells: wide range of concentrations. The method, then: The chemotactic response of cells transfected with a nucleic acid encoding FPR or FPRL1 was tested as another sensitive parameter to assess the receptor targets of T21/DP107. (Gong et al., J. Biol. Chem. 273: 4289 (1998); Gong et al., J. Biol. Chem. 272:11682 (1997); and Ben-Baruch et al., J. Biol. Chem. 270: 22123 (1995)). Accordingly, different concentrations of T21/DP107 were placed in the lower wells of a chemotaxis chamber and a cell suspension was placed in the upper wells. The upper and lower wells were separated by polycarbonate filters precoated with mouse collagen type I. After incubation, the cells that migrated across the filters were stained and counted. […] The CI (chemotaxis index), which represents the fold increase of leukocyte migration in response to T21/DP107 over control medium, was also determined. […] (FIG. 9B).
Leukocytes, ETFR and FPRL1/293 cell migration was assessed using a 48-well microchemotaxis chamber technique as previously described. (Gong et al., J. Biol. Chem. 273: 4289 (1998); Gong et al., J. Biol. Chem. 272: 11682 (1997); and Kliger et al., J. Biol. Chem. 272: 13496 (1997)). Different concentrations of stimulants were placed in wells of the lower compartment of the chamber (Neuro Probe, Cabin John, Mass.), the cell suspension was seeded in wells of the upper compartment which was separated from the lower compartment by a polycarbonate filter (Osmonics, Livermore, Calif.; 5 μm-pore size for leukocytes, 10 μm pore-size for ETFR and FPRL1/293 cells). For CD3+ T lymphocytes, the filters were precoated with 20 μg/ml bovine fibronectin (Sigma). The filters for ETFR and FPRL1/293 cell migration were precoated with 50 μg/ml collagen type I (Collaborative Biomedical products, Bedford, Mass.) to favor the attachment of the cells. After incubation at 37° C. (90 min for monocytes, 60 min for neutrophils, 180 min for T cells and 300 min for ETFR or FPRL1/293 cells), the filters were removed, stained and the cells migrating across the filter were counted by light microscopy after coding the samples. […] The significance of the increase in cell migration was determined using Student's t test and CI≧2 was statistically significant compared to medium control (at least p<0.05).

In test [3] the test system is mock-transfected parental cells. Kind of test: Calcium mobilization in parental or mock-transfected rat basophil cell line. Type of test: cell-based. The note with it: rat basophil cell line without FPR. The method, then: as §1, with “neutrophils” for “neutrophils, FPRL1”, “cells” for “transfectants”, “transfered” for “transferred”
Another test has as its system HEK 293 cells. Kind of test: Calcium mobilization in parental or mock transfected HEK 293 cells. Format: cell-based, human. The note with it: control experiments. On the procedure: (FIGS. 8C1, 8C2, 8F1, and 8F2).
as §1

The subject of a further test is human neutrophils. Format: cell-based.
Another test relates to mock-transfected cells. Kind of test: Chemotaxis of mock-transfected cells. Format: cell-based, rat. The settings on record: FIG. 3E.
The subject of test [4] is human peripheral blood monocytes. Format: cell-based.
The mark [5] stands for this setting: monocytes, pertussis toxin at 100 ng/ml for 30 min at 37° C. (FIG. 1B).
Where [6] appears, read: monocytes, pertussis toxin at 100 ng/ml for 30 min at 37° C. (FIG. 6B).

On to QNQQEKNEQELLELDKWASLWNWF [T914], for which the anti-HIV-1 fusion activity result in the test on HIV-1 is “ineffective”.

Take `CCCCC[C@H](O)/C=C/C=C\C=C\C=C\[C@@H](O)[C@@H](O)CCCC(=O)O` [LXA4, lipoxin A4]: the “inhibition of T21/DP107 signaling” value is recorded as “nor did we observe inhibition” with human monocytes (phagocytes (monocytes), commercially available LXA4 (Biomol)); “nor did we observe inhibition” against FPRL1 [1] (FPRL1/293 cells, commercially available LXA4 (Biomol)); “nor did we observe inhibition” in the test with neutrophils (phagocytes (neutrophils), commercially available LXA4 (Biomol)). Besides, the “induction of Ca++ mobilization in FPRL1 expressing cells” value is reported as “did not detect significant induction” on FPRL1 [1] (FPRL1/293 cells) and “not able to induce” on FPRL1 [1] (FPRL1/293 cells, listed as lipoxin A4). Moreover, the “migration / chemotaxis of FPRL1/293 cells” value on FPRL1 [2] is on record as “did not detect significant induction”; at FPRL1 [2] (listed as lipoxin A4), “not able to induce”.

Turning to `CSCC[C@H](NC=O)C(=O)N[C@@H](CC(C)C)C(=O)N[C@@H](Cc1ccccc1)C(=O)O` [fMLP, N-formyl-methionyl-leucyl-phenylalanine], the “Ca++ flux in parental or mock-transfected cells” value in test [3] is on record as “Neither peptide stimulated; also recorded: did not induce any”. Also, in the test with HEK 293 cells, the “Ca++ mobilization in parental or mock transfected HEK 293 cells” value is “did not induce any”. The “migration across the filters (microscopy at 200× magnification)” value with human neutrophils is “significant migration”; in [4] (monocytes, 100 nM) it was “significant migration”. Further, the “desensitizing effect on T20/DP178-induced Ca++ mobilization” value in the test with human monocytes (monocytes, fMLP 100 nM, T20/DP178 100 nM) was “desensitizes; also recorded: marked desensitizing effect”; in the test with neutrophils (neutrophils, fMLP 100 nM, T20/DP178 100 nM), “desensitizes; also recorded: marked desensitizing effect”. Moreover, the “desensitizing effect on T21/DP107-induced Ca++ mobilization” value with human monocytes (monocytes, high concentrations (≧1 μM) of fMLP, T21/DP107 1 μM) is “desensitizes; also recorded: partial desensitizing effect”; in the test on neutrophils (neutrophils, high concentrations (≧1 μM) of fMLP, T21/DP107 1 μM) it was “desensitizes; also recorded: partial desensitizing effect”. The “desensitization of T21/DP107-induced Ca++ mobilization” value on FPRL1 [1] is “desensitizes”. For the same molecule, the “minimal effective concentration to induce Ca++ mobilization” value on FPRL1 [1] is on record as “low μM range”. Besides, in the test on mock-transfected cells, the “migration of mock-transfected cells” value is recorded as “did not induce migration”. In addition, at FPRL1 [2] (at concentrations as high as 50 μM (5×10−5 M)), the “migration / chemotaxis of FPRL1 expressing cells” value is recorded as “does not induce significant chemotaxis; also recorded: failed to induce significant migration”. The “migration / chemotaxis of FPRL1/293 cells” value at FPRL1 [2] was “failed to migrate”.

As to pertussis toxin, the “inhibition of T20/DP178-induced migration by pretreatment of the cells” value (in the test on human neutrophils (neutrophils); in test [4] (setting [5])) was “completely inhibited” throughout. The “inhibition of T21/DP107-induced migration by pretreatment of the cells” value with human neutrophils (neutrophils) is “completely inhibited”; in test [4] (setting [6]), “inhibition; also recorded: completely inhibited”.

For the molecule cholera toxin, in the test on human neutrophils, the “inhibition of T20/DP178-induced migration by pretreatment of the cells” value is “not” and the “inhibition of T21/DP107-induced migration by pretreatment of the cells” value was “not”. In test [4], the “inhibition of T20/DP178-induced migration by pretreatment of the cells” value was “not” and the “inhibition of T21/DP107-induced migration by pretreatment of the cells” value is given as “not”.

For `CO[C@H]1[C@@H](OC)C[C@H](C)[C@@H](OC)C2=CC(=O)C=C(NC(=O)/C(C)=C/C=C\[C@H](OC)[C@@H](OC(N)=O)/C(C)=C/[C@@H]1C)C2=O` [herbimycin A], the “inhibition of T20/DP178-induced migration by pretreatment of the cells” value (in the test on human neutrophils (neutrophils); in [4] (setting [5])) was “not” throughout. Further, the “inhibition of T21/DP107-induced migration by pretreatment of the cells” value (with human neutrophils (neutrophils); in test [4] (setting [6])) was “not” throughout.
